In patent US9580439B2, “Inhibitors of focal adhesion kinase” (The Scripps Research Institute, priority 2007, dated 2017):
pIC50: −log10 of the molar value.

Molecular target: FAK (411-686, activated by Src and repurified) (Homo sapiens, UniProt Q05397)
Experiment: FAK Biochemical Assay (cell-free, HTRF)
Details: 10 μM ATP, read-out: 50% inhibitory concentrations (IC50) against focal adhesion kinase in the cell-free assay
Protocol: All experiments were performed in Greiner FIA black 384-well low volume plates.
A 5 μl mixture of a 200 nM Ulight-poly GT substrate (Perkin Elmer) and 10 μM ATP in Kinase buffer (50 mM Hepes pH 7.3, 10 mM MgCl2, 1 mM EGTA, 0.01% Tween-20, 2 mM dithriothreitol) was dispensed into the wells. […] of 90% DMSO/10% water containing the compounds to be tested was added to the wells. Kinase reaction was started by addition of 5 μl of 1 nM FAK (411-686, activated by Src and repurified) in Kinase buffer. After 50 min at RT the reaction was stopped with 5 μl of 40 mM EDTA in detection buffer (Perkin Elmer, Lance detection buffer) followed by a 5 μl addition of 8 nM LANCE Ei-W1024 anti-phosphotyrosine (PY20) antibody in detection buffer. After 1 h incubation at RT the plate was read on the Viewlux in HTRF mode.

FAK (411-686, activated by Src and repurified), sequence (Q05397 411-686, species assumed): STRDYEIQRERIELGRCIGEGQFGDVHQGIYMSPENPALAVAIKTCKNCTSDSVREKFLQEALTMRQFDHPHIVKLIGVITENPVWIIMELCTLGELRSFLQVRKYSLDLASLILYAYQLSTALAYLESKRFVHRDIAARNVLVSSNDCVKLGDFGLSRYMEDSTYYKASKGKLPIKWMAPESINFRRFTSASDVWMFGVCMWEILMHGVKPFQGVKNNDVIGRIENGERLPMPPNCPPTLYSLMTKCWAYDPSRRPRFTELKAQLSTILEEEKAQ

| SMILES | pIC50 |
| --- | --- |
| CN1Cc2cccc(Nc3cc(Nc4cccc5c4C(=O)N(C)C5)c(C(F)(F)F)cn3)c2C1=O [Compound 3, 7,7′-(5-(trifluoromethyl)pyridine-2,4-diyl)bis(azanediyl)bis(2-methylisoindolin-1-one)] | < 5.00 |
| CNS(=O)(=O)c1ccccc1Nc1cc(Nc2ccccc2S(=O)(=O)NC)c(C(F)(F)F)cn1 [Compound 5] | < 5.00 |
